Laboratory results: PubChem BioAssay (NCI)
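Tested at 5 concentrations; 48 h exposure; 96-well plates; endpoints linearly interpolated, else capped at highest concentration. GI50 is the concentration that inhibits growth by half. TGI is the concentration that stops growth completely.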

Columns and labels:
Assay in all cases: DTP human tumour cell line panel, 48 h
CAKI-1 renal = tested on: CAKI-1 renal
SK-MEL-28 melanoma = tested on: SK-MEL-28 melanoma
COLO 205 colon = tested on: COLO 205 colon
RPMI-8226 leukemia = tested on: RPMI-8226 leukemia
T-47D breast = tested on: T-47D breast
SF-295 CNS = tested on: SF-295 CNS
SNB-19 CNS = tested on: SNB-19 CNS
CCRF-CEM leukemia = tested on: CCRF-CEM leukemia
HOP-92 NSCLC = tested on: HOP-92 NSCLC
NCI-H226 lung = tested on: NCI-H226 lung
KM12 colon = tested on: KM12 colon
NCI-H23 lung = tested on: NCI-H23 lung
HS 578T breast = tested on: HS 578T breast
UACC-62 melanoma = tested on: UACC-62 melanoma
A549 NSCLC = tested on: A549 NSCLC
HCT-116 colon = tested on: HCT-116 colon
MDA-MB-435 = tested on: MDA-MB-435
SNB-75 CNS = tested on: SNB-75 CNS
HOP-62 NSCLC = tested on: HOP-62 NSCLC
ACHN renal = tested on: ACHN renal
NCI/ADR-RES ovarian = tested on: NCI/ADR-RES ovarian
K-562 leukemia = tested on: K-562 leukemia
U251 CNS = tested on: U251 CNS
UACC-257 melanoma = tested on: UACC-257 melanoma
BT-549 breast = tested on: BT-549 breast
LOX IMVI melanoma = tested on: LOX IMVI melanoma
MCF7 breast = tested on: MCF7 breast
HL-60(TB) leukemia = tested on: HL-60(TB) leukemia
SW-620 colon = tested on: SW-620 colon
HT29 colon = tested on: HT29 colon
HCT-15 colon = tested on: HCT-15 colon
DU-145 prostate = tested on: DU-145 prostate
IGROV1 ovarian = tested on: IGROV1 ovarian
NCI-H460 lung = tested on: NCI-H460 lung
NCI-H522 lung = tested on: NCI-H522 lung
HCC-2998 colon = tested on: HCC-2998 colon
SF-539 CNS = tested on: SF-539 CNS
OVCAR-4 ovarian = tested on: OVCAR-4 ovarian
SF-268 CNS = tested on: SF-268 CNS
MDA-MB-231 breast = tested on: MDA-MB-231 breast
786-0 renal = tested on: 786-0 renal
SK-MEL-5 melanoma = tested on: SK-MEL-5 melanoma
OVCAR-3 ovarian = tested on: OVCAR-3 ovarian
MALME-3M melanoma = tested on: MALME-3M melanoma
SK-OV-3 ovarian = tested on: SK-OV-3 ovarian
UO-31 renal = tested on: UO-31 renal
OVCAR-8 ovarian = tested on: OVCAR-8 ovarian
M14 melanoma = tested on: M14 melanoma
SK-MEL-2 melanoma = tested on: SK-MEL-2 melanoma
RXF 393 renal = tested on: RXF 393 renal
MOLT-4 leukemia = tested on: MOLT-4 leukemia
PC-3 prostate = tested on: PC-3 prostate
SN12C renal = tested on: SN12C renal
TK-10 renal = tested on: TK-10 renal
OVCAR-5 ovarian = tested on: OVCAR-5 ovarian
A498 renal = tested on: A498 renal
SR leukemia = tested on: SR leukemia

O=C1NC(=NCCc2cccs2)S/C1=C\c1ccc2ncccc2c1
GI50 (CAKI-1 renal): 9.7 µM
TGI (CAKI-1 renal): > 25 µM
GI50 (SK-MEL-28 melanoma): 24.4 µM
TGI (SK-MEL-28 melanoma): > 25 µM
GI50 (COLO 205 colon): 7.79 µM
TGI (COLO 205 colon): > 25 µM
GI50 (RPMI-8226 leukemia): 11.6 µM
TGI (RPMI-8226 leukemia): > 25 µM
GI50 (T-47D breast): 10.1 µM
TGI (T-47D breast): > 25 µM
GI50 (SF-295 CNS): 9.56 µM
TGI (SF-295 CNS): > 25 µM
GI50 (SNB-19 CNS): 9.64 µM
TGI (SNB-19 CNS): > 25 µM
GI50 (CCRF-CEM leukemia): 10.2 µM
TGI (CCRF-CEM leukemia): > 25 µM
GI50 (HOP-92 NSCLC): 4.7 µM
TGI (HOP-92 NSCLC): > 25 µM
GI50 (NCI-H226 lung): 8.21 µM
TGI (NCI-H226 lung): > 25 µM
GI50 (KM12 colon): 10.8 µM
TGI (KM12 colon): > 25 µM
GI50 (NCI-H23 lung): 9.54 µM
TGI (NCI-H23 lung): > 25 µM
GI50 (HS 578T breast): 6.57 µM
TGI (HS 578T breast): > 21.8 µM
GI50 (UACC-62 melanoma): 9.51 µM
TGI (UACC-62 melanoma): > 25 µM
GI50 (A549 NSCLC): 8.83 µM
TGI (A549 NSCLC): > 25 µM
GI50 (HCT-116 colon): 5.92 µM
TGI (HCT-116 colon): > 25 µM
GI50 (MDA-MB-435): 6.97 µM
TGI (MDA-MB-435): > 25 µM
GI50 (SNB-75 CNS): 5.91 µM
TGI (SNB-75 CNS): > 22.6 µM
GI50 (HOP-62 NSCLC): 11.8 µM
TGI (HOP-62 NSCLC): > 25 µM
GI50 (ACHN renal): 8.33 µM
TGI (ACHN renal): > 25 µM
GI50 (NCI/ADR-RES ovarian): 15.3 µM
TGI (NCI/ADR-RES ovarian): > 25 µM
GI50 (K-562 leukemia): 8.85 µM
TGI (K-562 leukemia): > 25 µM
GI50 (U251 CNS): 8.79 µM
TGI (U251 CNS): > 25 µM
GI50 (UACC-257 melanoma): > 19.3 µM
TGI (UACC-257 melanoma): > 25 µM
GI50 (BT-549 breast): 6.39 µM
TGI (BT-549 breast): 22 µM
GI50 (LOX IMVI melanoma): 8.12 µM
TGI (LOX IMVI melanoma): > 25 µM
GI50 (MCF7 breast): 8.28 µM
TGI (MCF7 breast): > 25 µM
GI50 (HL-60(TB) leukemia): 9.17 µM
TGI (HL-60(TB) leukemia): > 25 µM
GI50 (SW-620 colon): 8.2 µM
TGI (SW-620 colon): > 25 µM
GI50 (HT29 colon): 11.8 µM
TGI (HT29 colon): > 25 µM
GI50 (HCT-15 colon): 8.02 µM
TGI (HCT-15 colon): > 25 µM
GI50 (DU-145 prostate): 11.2 µM
TGI (DU-145 prostate): > 25 µM
GI50 (IGROV1 ovarian): 9.1 µM
TGI (IGROV1 ovarian): > 25 µM
GI50 (NCI-H460 lung): 10.3 µM
TGI (NCI-H460 lung): > 25 µM
GI50 (NCI-H522 lung): 7.33 µM
TGI (NCI-H522 lung): > 25 µM
GI50 (HCC-2998 colon): 22.1 µM
TGI (HCC-2998 colon): > 25 µM
GI50 (SF-539 CNS): 7.54 µM
TGI (SF-539 CNS): > 25 µM
GI50 (OVCAR-4 ovarian): 13.2 µM
TGI (OVCAR-4 ovarian): > 25 µM
GI50 (SF-268 CNS): 10 µM
TGI (SF-268 CNS): > 25 µM
GI50 (MDA-MB-231 breast): 19.7 µM
TGI (MDA-MB-231 breast): > 25 µM
GI50 (786-0 renal): 14.5 µM
TGI (786-0 renal): > 25 µM
GI50 (SK-MEL-5 melanoma): 8.5 µM
TGI (SK-MEL-5 melanoma): > 25 µM
GI50 (OVCAR-3 ovarian): 10.1 µM
TGI (OVCAR-3 ovarian): > 25 µM
GI50 (MALME-3M melanoma): > 25 µM
TGI (MALME-3M melanoma): > 25 µM
GI50 (SK-OV-3 ovarian): 9.36 µM
TGI (SK-OV-3 ovarian): > 25 µM
GI50 (UO-31 renal): 11.4 µM
TGI (UO-31 renal): > 25 µM
GI50 (OVCAR-8 ovarian): 10.3 µM
TGI (OVCAR-8 ovarian): > 25 µM
GI50 (M14 melanoma): 12.1 µM
TGI (M14 melanoma): > 25 µM
GI50 (SK-MEL-2 melanoma): > 18.8 µM
TGI (SK-MEL-2 melanoma): > 25 µM
GI50 (RXF 393 renal): 7.68 µM
TGI (RXF 393 renal): > 25 µM
GI50 (MOLT-4 leukemia): 12.6 µM
TGI (MOLT-4 leukemia): > 25 µM
GI50 (PC-3 prostate): > 20 µM
TGI (PC-3 prostate): > 25 µM
GI50 (SN12C renal): 8.78 µM
TGI (SN12C renal): > 25 µM
GI50 (TK-10 renal): 7.77 µM
TGI (TK-10 renal): > 25 µM
GI50 (OVCAR-5 ovarian): > 20.4 µM
TGI (OVCAR-5 ovarian): > 25 µM
GI50 (A498 renal): 7.59 µM
TGI (A498 renal): > 22.3 µM
GI50 (SR leukemia): 2.23 µM
TGI (SR leukemia): 14.2 µM
